In patent US12239729B2, “TRPV3 agonists for the treatment of skin conditions” (Soricimed Biopharma Inc., priority 2012, dated 2025):
Entries after “also recorded” stand apart in the source; their conditions may differ. Peptide text beside a SMILES is read from it.

How the values were obtained:
HaCaT cells [1] = experiment: Cell death assay in HaCaT keratinocytes (Example 3); format: cell-based, human
Procedure: In an initial experiment, various concentrations of SOR-C13 and SOR-C27 were tested on human keratinocytes (HaCaT cells) for their ability to cause cell death. The negative control was Phosphate Buffered Saline (PBS) and the positive control was Glycolic Acid (20 mM), a known activator of TRPV3. At the concentrations used (10, 100 and 1000 μM) only the 1000 μM concentration produced a statistically significant increase in cell death over PBS (FIG. 6). […] The two peptides appeared to be indistinguishable in their activity with respect to the number of dead cells
Both peptides were dissolved in PBS at 30 mM concentration at ambient temperature based on the peptide content with a correction factor (SOR-C13 concentration was multiplied by 1.19, while SOR-C27 concentration was multiplied by 1.29). Stock solutions were sterilized by passing through a 0.2 μm syringe filter prewashed with PBS. Stocks of peptides were kept at −20° C. during the study.
Human immortalized keratinocyte HaCaT cells (Cat. #T0020001) were from Addexbio Technologies (San Diego, California, USA). In general, HaCaT cells were cultured in 37° C. CO2 incubator in DEME with 1.0 g/L glucose (Lonza, Cat #12-707F) with 10% FBS. Glutamine (2 mM), penicillin (100 I.U.) and streptomycin (100 μg/ml) were added to the media. Cells were sub-cultured twice per week using Trypsin-0.25% EDTA to detach cells.
HaCaT cells were plated at ˜8×10^5/well in each well of the 12-well tissue culture plates in triplicates in 2 ml culture media. Twenty-four (24) hours post-plating, cells were treated with PBS, or SOR-C13 at 10, 100 and 1000 μM, or SOR-C27 at 10, 100 and 1000 μM, or glycolic acid at 20 mM.
At 72 hours post-treatment, the incubation was terminated and supernatant was collected. Attached cells were washed with 2 ml PBS, and trypsinized. Suspension of cells was combined with supernatant and spun at 1000 g for 5 minutes. The cell pellet was then resuspended in 100 μl PBS for cell counting using trypan blue exclusion.
Student's t-test was used to compare the group treated with a test article vs. the group treated with PBS. Standard errors of mean (SEM) were used to represent variation of data.

HaCaT cells [2] = experiment: Cell death assay in HaCaT cells with SOR-C13 fragments (Example 5); format: cell-based, human
Procedure: Solutions of each of the peptides listed in Table 2 were made based on formulation weight without correction of purity in PBS at a 100 mM stock concentration. Stock solutions were sterilized by passing through a 0.2 μm syringe filter prewashed with PBS. Stocks of peptides were kept in aliquots at −20° C. during the study. Glycolic acid was made in a 5M stock in PBS and filtered using a 0.2 μm syringe filter and kept at −20° C.
Human immortalized keratinocyte HaCaT cells were cultured as described in Example 3.
HaCaT cells were plated at ˜8×10^5/well in each well of the 12-well tissue culture plates in triplicates in 2 ml culture media. Twenty-four (24) hours post-plating, cells were treated with PBS, or peptide stocks at 100 and 1000 μM (in triplicates), or glycolic acid at 20 mM (single data point). The Cell Death Assay was otherwise performed as described in Example 3.

[3] = target: T1, TRPV3 channels expressed in HEK-293 cells (Homo sapiens, UniProt Q8NET8); experiment: Patch-clamp testing of TRPV3 channel activity in transfected HEK-293 cells; format: cell-based
T1 construct: expressed in transfected cells; host or cells: HEK-293 cells, transient transfection
T1 sequence (Q8NET8 1-790): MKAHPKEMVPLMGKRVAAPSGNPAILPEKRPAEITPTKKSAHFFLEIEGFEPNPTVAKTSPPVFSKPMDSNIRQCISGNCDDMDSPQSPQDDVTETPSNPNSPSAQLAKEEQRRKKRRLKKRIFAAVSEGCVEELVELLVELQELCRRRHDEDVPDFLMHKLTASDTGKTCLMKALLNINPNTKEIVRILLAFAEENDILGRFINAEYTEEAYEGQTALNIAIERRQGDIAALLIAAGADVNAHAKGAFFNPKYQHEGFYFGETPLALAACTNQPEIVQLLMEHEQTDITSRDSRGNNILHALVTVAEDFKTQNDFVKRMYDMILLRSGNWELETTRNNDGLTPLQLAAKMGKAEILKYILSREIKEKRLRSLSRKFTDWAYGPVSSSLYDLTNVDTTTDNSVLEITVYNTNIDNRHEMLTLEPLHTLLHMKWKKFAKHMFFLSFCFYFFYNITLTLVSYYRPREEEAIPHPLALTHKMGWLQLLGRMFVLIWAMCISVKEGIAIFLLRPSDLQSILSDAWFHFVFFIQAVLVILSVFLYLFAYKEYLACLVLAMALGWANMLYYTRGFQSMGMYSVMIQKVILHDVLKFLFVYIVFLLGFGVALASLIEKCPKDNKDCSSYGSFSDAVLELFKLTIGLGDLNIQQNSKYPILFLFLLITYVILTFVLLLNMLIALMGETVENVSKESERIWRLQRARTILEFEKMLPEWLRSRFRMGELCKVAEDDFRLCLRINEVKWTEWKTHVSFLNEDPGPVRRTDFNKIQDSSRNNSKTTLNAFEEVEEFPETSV
Procedure: SOR-C13, SOR-C27 and SOR-N54 were tested using a patch clamp screen to determine whether the peptide had any effect on the channel activity of TRPV3. Ruthenium red, a known antagonist of TRPV3 and 2-Aminoethoxydiphenyl Borate (2-APB) a known activator of TRPV3 were used as controls.
HEK 293 cells were maintained in ϕ30 mm cell culture plate in DMEM media supplemented with 10% fetal bovine serum and penicillin/streptomycin. Cells were grown in a humidified atmosphere of 95% air/5% CO2 at 37° C. in a cell culture incubator.
The cells from 70-90% confluence were prepared for transfection. For transient expression in HEK-293 cells 1 μg plasmid cDNA and pEGFP (in vivo reporter of gene expression) were used.
Recordings were performed at 20˜23° C. Currents were sampled using Digidata 1440A, amplified, and filtered at 2 kHz using Axopatch 200B, then acquired and analyzed using pClamp 10.0 (Molecular Devices, Sunny vales, CA, USA).
The pipette solution and bath solution contained 140 mM CsCl, 4 mM MgCl2, 10 mM EGTA, CsOH pH=7.3 and 130 mM NaCl, 5 mM KCl, 2 mM CaCl2), 1 mM MgCl2, 25 mM HEPES, 30 mM Glucose, pH=7.3, respectively.
Each peptide was diluted in the bath solution to the desired concentration (0.01 μM, 0.03 μM, 0.1 μM, 0.3 μM, 1 μM, 3 μM, or 10 μM), respectively.

HaCaT cells [4] = experiment: Wound healing (scratch gap closure) assay in HaCaT cells (Example 4); format: cell-based, human; conditions: 24 hours; for effect on migration of HaCaT cells through the scratch (words): 100 μM
Procedure: SOR-C13 and SOR-C27 were tested for their ability to promote tissue repair in a human keratinocytes (HaCaT) model of wound healing. In this model, cells are grown to confluency and then a gap is made in the sheet of cells by scratching the surface of the cells. After treating the cells for 24 hours, the closure of the gap, and the state of the cells in terms of polarization and mobility into the gap, are measured as a surrogate for activation of the wound healing response and the proliferation and/or migration of cells involved in tissue repair.
HaCaT cells were plated at 4×10^5 per well in 12-well tissue culture plates in MEGM Bullet Kit (Lonza, Cat. #CC-3150) containing bovine pituitary extracts (BPE), hEGF, insulin, and hydrocortisone. The total volume was 2 ml. About 24 hours later, a gap at the bottom of each well was generated by scratching with a sterile pipette tip. The supernatant was aspirated and cells were washed gently once with PBS. Fresh media (MEGM Bullet Kit, 2 ml) was added after the wash. Cells were treated in duplicates with PBS, or SOR-C13 at 10, 100 and 1000 μM, or SOR-C27 at 10, 100 and 1000 μM, and 100 μM valproic acid. After 24 hours, each well was examined under the microscope to semi-quantify the gap closure by cell migration. A digital camera fixed to the microscope was used to capture images of cells.
Under visual inspection, the wound healing results was scored as: • “−”: minimal cell polarization toward wound, no initiation of cell protrusion into the gap; no change in the wound gap; • “+”: cell polarization toward wound was observed; cell protrusion was observed; cell migration started but gap size is between 75 to 100% of original wound gap; • “++”: cell polarization toward the wound was observed; cell protrusion was observed; cell migration across the gap was observed, and gap size ≤½ of original wound gap; • “+++”: cell polarization toward wound was observed; cell protrusion was observed; cell migration across the gap was observed, and gap size ≤⅓ of original wound gap. Results

**Q.** What does the source list for `O=C(O)CO` [Glycolic acid, reference compound]?
**A.** induction of cell death (words) (HaCaT cells [1]; 20 mM, 72 hours): dramatically induced cell death; number of dead cells (HaCaT cells [1]; 20 mM, 72 hours): ~9.1×10^4 per well; number of dead cells (HaCaT cells [2]; 20 mM, 72-hour treatment, single data point): ~4.5×10^4 per well; induction of cell death above PBS (HaCaT cells [2]; 20 mM, 72 hours): no increase in cell death above the PBS treatment

**Q.** `N.N.N.N.N.N.N.N.N.N.N.N.N.N.[Cl-].[Cl-].[Cl-].[Cl-].[Cl-].[Cl-].[O-2].[O-2].[Ru+3].[Ru+3].[Ru+4]` [Ruthenium red] was tested. Which “effect on activation of TRPV3 channel by 2-APB” value ([3]; control inhibitor, 100 μM 2-APB) did it give?
**A.** Its value is “inhibited activation of the channel by 2-APB”.

**Q.** Which “increase in cell death compared to PBS treatment” value (HaCaT cells [1]; 1 mM, 72-hour incubation) does the source give for `CC(C)C[C@H](NC(=O)CNC(=O)CNC(=O)[C@H](CCC(=O)O)NC(=O)[C@@H](NC(=O)[C@H](CC(=O)O)NC(=O)[C@H](CC(N)=O)NC(=O)[C@H](CO)NC(=O)[C@H](CO)NC(=O)[C@H](CC(C)C)NC(=O)[C@H](CCCCN)NC(=O)CNC(=O)[C@@H](N)CCC(=O)O)[C@@H](C)O)C(=O)N[C@@H](CS)C(=O)N[C@@H](CCCCN)C(=O)N[C@@H](CCC(=O)O)C(=O)N[C@@H](Cc1ccccc1)C(=O)N[C@@H](CC(C)C)C(=O)N[C@@H](Cc1c[nH]cn1)C(=O)N1CCC[C@H]1C(=O)N[C@@H](CO)C(=O)N[C@@H](CCCCN)C(=O)N[C@H](C(=O)N[C@@H](CC(=O)O)C(=O)N[C@@H](CC(C)C)C(=O)N1CCC[C@H]1C(=O)N[C@@H](CCCNC(=N)N)C(=O)O)C(C)C` [SOR-C27] (H-EGKLSSNDTEGGLCKEFLHPSKVDLPR-OH) here?
**A.** The value was about 2 fold.

**Q.** What about the “induction of cell death compared to PBS” value (HaCaT cells [1]; 1 mM, 72 hours, p<0.05) of the same compound?
**A.** The value was “significantly induced cell death”.

**Q.** And the “number of dead cells” value (HaCaT cells [1]; 1 mM, 72 hours, trypan blue exclusion)?
**A.** Its value is 2.3×10^4 /well.

**Q.** And the “induction of cell death compared to PBS” value (HaCaT cells [1]; 10 or 100 μM, 72 hours)?
**A.** The value was “no significant difference in the numbers of dead cells; also recorded: did not have a significant effect”.

**Q.** And the “effect on migration of HaCaT cells over the tested concentrations” value (HaCaT cells [4]; 10, 100, 1000 μM)?
**A.** Its value is “did not appear to exert a significant effect; also recorded: no significant visual difference; also recorded: had no clear effect on promoting migration”.

**Q.** What about the EC50 [3] of the same compound?
**A.** The EC50 was 0.0941 µM.

**Q.** Which results are given for `CCCC(CCC)C(=O)O` [Valproic acid, reference compound]?
**A.** effect on migration of HaCaT cells through the scratch (words) (HaCaT cells [4]): appeared to block the migration; effect on migration of HaCaT cells through the scratch (words) (HaCaT cells [4]; listed as valproic acid): did not appear to induce migration

**Q.** HPSKVDLPR [SOR-C9] was tested. Which “induction of cell death (words)” value (HaCaT cells [2]; 100 μM, 72 hours, p<0.05) did it give?
**A.** The value was “slight but significant increase of cell death”.

**Q.** And the “induction of cell death (words)” value (HaCaT cells [2]; 100 μM, 72 hours, p<0.05, listed as C9)?
**A.** Its value is “significant cell death induction”.

**Q.** Which results are given for SKVDLPR [SOR-C7]?
**A.** induction of cell death (words) (HaCaT cells [2]; 100 μM, 72 hours, p<0.05): slight but significant increase of cell death; induction of cell death (words) (HaCaT cells [2]; 100 μM, 72 hours, p<0.05, listed as C7): significant cell death induction; induction of cell death (words) (HaCaT cells [2]; 1000 μM, 72 hours, p<0.05): slight but significant increase of cell death

**Q.** With “SOR-N54: full length soricidin peptide, fifty-four amino acid paralytic peptide (DCSQDCAACSILARPAELNTETCILECEGKLSSNDTEGGLCKEFLHPSKVDLPR; Soricidin; UniProt P0C2P6 1-54, looked up)” as the compound, how does the “effect on TRPV3 channel activity / activation of TRPV3 by 2-APB” value ([3]; 10 μM peptide in the presence of 100 μM 2-APB) read?
**A.** The value was “did not show any effect; also recorded: did not alter the activation of TRPV3”.
